# From patent US8546383B2, “Chiral fused [1,2]imidazo[4,5-c] ring compounds” (3M Innovative Properties Company, priority 2004, dated 2013)
# Where a name gives a salt, the structure may show the parent alone.
row,SMILES,melting point
1,Nc1nc2ccccc2c2c1nc1n2[C@H](Cc2ccccc2)COC1 (hydrate or solvate) [Example 29],170 to 177 °C
2,"CC(C)[C@H]1COCc2nc3c(N)nc4c(c3n21)CCCC4 [Example 2, (11S)-11-Isopropyl-2,3,4,8,10,11-hexahydro-1H-[1,4]oxazino[4′,3′:1,2]imidazo[4,5-c]quinolin-6-amine]",158 to 160 °C
3,"CC(C)[C@H]1COCc2nc3c(N)nc4cc(OCc5ccccc5)ccc4c3n21 [Example 3, (11S)-3-(Benzyloxy)-11-isopropyl-10,11-dihydro-8H-[1,4]oxazino[4′,3′:1,2]imidazo[4,5-c]quinolin-6-amine]",227 to 229 °C
4,"CC(C)[C@H]1COCc2nc3c(N)nc4cc(O)ccc4c3n21 [Example 4, (11S)-6-Amino-11-isopropyl-10,11-dihydro-8H-[1,4]oxazino[4′,3′:1,2]imidazo[4,5-c]quinolin-3-ol]",210 to 215 °C
5,"C[C@H]1COCc2nc3c(N)nc4ccccc4c3n21 [Example 5, (11S)-11-Methyl-10,11-dihydro-8H-[1,4]oxazino[4′,3′:1,2]imidazo[4,5-c]quinolin-6-amine]",280 to 282 °C
6,"C[C@H]1COCc2nc3c(N)nc4cc(OCc5ccccc5)ccc4c3n21 [Example 7, (11S)-3-(Benzyloxy)-11-methyl-10,11-dihydro-8H-[1,4]oxazino[4′,3′:1,2]imidazo[4,5-c]quinolin-6-amine]",218 to 220 °C
7,"C[C@H]1COCc2nc3c(N)nc4cc(O)ccc4c3n21 [Example 8, (11S)-6-Amino-11-methyl-10,11-dihydro-8H-[1,4]oxazino[4′,3′:1,2]imidazo[4,5-c]quinolin-3-ol]",> 250 °C
8,"CC(C)(F)[C@H]1COCc2nc3c(N)nc4ccccc4c3n21 [Example 11, (11R)-11-(1-Fluoro-1-methylethyl)-10,11-dihydro-8H-[1,4]oxazino[4′,3′:1,2]imidazo[4,5-c]quinolin-6-amine]",242 to 244 °C
9,"CC(C)(F)[C@H]1COCc2nc3c(N)nc4c(c3n21)CCCC4 [Example 12, (11R)-11-(1-Fluoro-1-methylethyl)-2,3,4,8,10,11-hexahydro-1H-[1,4]oxazino[4′,3′:1,2]imidazo[4,5-c]quinolin-6-amine]",195.5 to 197 °C
10,"CC(C)(O)[C@H]1COCc2nc3c(N)nc4ccccc4c3n21 [Example 13, 2-[(11R)-6-Amino-10,11-dihydro-8H-[1,4]oxazino[4′,3′:1,2]imidazo[4,5-c]quinolin-11-yl]propan-2-ol]",216 to 217 °C
11,"CC(C)[C@H]1COCc2nc3c(N)nc4cccnc4c3n21 [Example 14, (11S)-11-Isopropyl-10,11-dihydro-8H-[1,4]oxazino[4′,3′:1,2]imidazo[4,5-c][1,5]naphthyridin-6-amine]",194 to 196 °C
12,"CC(C)(F)[C@H]1COCc2nc3c(N)nc4cc(O)ccc4c3n21 [Example 17, (11R)-6-Amino-11-(1-fluoro-1-methylethyl)-10,11-dihydro-8H-[1,4]oxazino[4′,3′:1,2]imidazo[4,5-c]quinolin-3-ol]",219 to 221 °C
13,"C[C@H]1COCc2nc3c(N)nc4ccc(O)cc4c3n21 [Example 21, (11S)-6-Amino-11-methyl-10,11-dihydro-8H-[1,4]oxazino[4′,3′:1,2]imidazo[4,5-c]quinolin-2-ol]",262 to 264 °C
14,C[C@@H]1COCc2nc3c(N)nc4ccccc4c3n21 [Example 26],280 to 282 °C
15,C[C@@H]1COCc2nc3c(N)nc4c(c3n21)CCCC4 [Example 27],209 to 211 °C
16,Nc1nc2ccccc2c2c1nc1n2[C@H](c2ccccc2)COC1 [Example 28],284 to 286 °C
17,CC(C)(F)[C@@H]1COCc2nc3c(N)nc4ccccc4c3n21 [Example 30],242 to 244 °C
18,"CC(C)(O)[C@H]1COCc2nc3c(N)nc4cccnc4c3n21 [Example 33, 2-[(11R)-6-Amino-10,11-dihydro-8H-[1,4]oxazino[4′,3′:1,2]imidazo[4,5-c]-1,5-naphthyridin-11-yl]propan-2-ol]",242 to 246 °C
19,"Nc1nc2ccccc2c2c1nc1n2[C@@H](COCc2ccccc2)COC1 [Example 34, (11S)-11-[(Benzyloxy)methyl]-10,11-dihydro-8H-[1,4]oxazino[4′,3′:1,2]imidazo[4,5-c]quinolin-6-amine]",184.6 to 186.2 °C
20,"Nc1nc2ccccc2c2c1nc1n2[C@@H](CO)COC1 [Example 35, [(11S)-6-Amino-10,11-dihydro-8H-[1,4]oxazino[4′,3′:1,2]imidazo[4,5-c]quinolin-11-yl]methanol]",238.6 to 239.8 °C
21,"Nc1nc2ccccc2c2c1nc1n2[C@@H](CCl)COC1 [Example 36, (11R)-11-(Chloromethyl)-10,11-dihydro-8H-[1,4]oxazino[4′,3′:1,2]imidazo[4,5-c]quinolin-6-amine]",230 to 232 °C
22,"C[C@@H](OCc1ccccc1)[C@H]1COCc2nc3c(N)nc4ccccc4c3n21 [Example 38, (11R)-11-[(1R)-1-(benzyloxy)ethyl]-10,11-dihydro-8H-[1,4]oxazino[4′,3′:1,2]imidazo[4,5-c]quinolin-6-amine]",189 to 190.8 °C
23,"C[C@@H](O)[C@H]1COCc2nc3c(N)nc4ccccc4c3n21 [Example 39, (1R)-1-[(11R)-6-Amino-10,11-dihydro-8H-[1,4]oxazino[4′,3′:1,2]imidazo[4,5-c]quinolin-11-yl]ethanol]",215.3 to 218.6 °C
24,"C[C@H](OCc1ccccc1)[C@H]1COCc2nc3c(N)nc4ccccc4c3n21 [Example 40, (11R)-11-[(1S)-1-(benzyloxy)ethyl]-10,11-dihydro-8H-[1,4]oxazino[4′,3′:1,2]imidazo[4,5-c]quinolin-6-amine]",86.6 to 89.7 °C

# The next lines start with the values.
row,melting point,SMILES
1,218 to 219 °C,CC(C)(O)[C@@H]1COCc2nc3c(N)nc4ccccc4c3n21 (as salt: hydrochloride) [Example 31]
2,> 240 °C (dec.),"Nc1nc2ccccc2c2c1nc1n2[C@@H](Cc2ccc(O)cc2)COC1 (as salt: hydrochloride) [Example 48, 4-{[(11S)-6-Amino-10,11-dihydro-8H-[1,4]oxazino[4′,3′:1,2]imidazo[4,5-c]quinolin-11-yl]methyl}phenol]"
3,100 to 120 °C,"CC1COCc2nc3c(N)nc4ccc(OCc5ccccc5)cc4c3n21 (stereo in doubt) [Example 18, (11R)-2-(Benzyloxy)-11-methyl-10,11-dihydro-8H-[1,4]oxazino[4′,3′:1,2]imidazo[4,5-c]quinolin-6-amine]"
4,249 to 250 °C,"CC(C)[C@H]1COCc2nc3c(N)nc4ccccc4c3n21 [Example 1, (11S)-1′-Isopropyl-10,11-dihydro-8H-[1,4]oxazino[4′,3′:1,2]imidazo[4,5-c]quinolin-6-amine]"
5,209 to 211 °C,"C[C@H]1COCc2nc3c(N)nc4c(c3n21)CCCC4 [Example 6, (11S)-11-Methyl-2,3,4,8,10,11-hexahydro-1H-[1,4]oxazino[4′,3′:1,2]imidazo[4,5-c]quinolin-6-amine]"
6,284 to 286 °C,"Nc1nc2ccccc2c2c1nc1n2[C@@H](c2ccccc2)COC1 [Example 9, (11S)-11-Phenyl-10,11-dihydro-8H-[1,4]oxazino[4′,3′:1,2]imidazo[4,5-c]quinolin-6-amine]"
7,170 to 177 °C,"Nc1nc2ccccc2c2c1nc1n2[C@@H](Cc2ccccc2)COC1 [Example 10, (11S)-11-Benzyl-10,11-dihydro-8H-[1,4]oxazino[4′,3′:1,2]imidazo[4,5-c]quinolin-6-amine]"
8,240 to 242 °C,"C[C@H]1COCc2nc3c(N)nc4cccnc4c3n21 [Example 15, (11S)-11-Methyl-10,11-dihydro-8H-[1,4]oxazino[4′,3′:1,2]imidazo[4,5-c][1,5]naphthyridin-6-amine]"
9,192 to 194 °C,"CC(C)(F)[C@H]1COCc2nc3c(N)nc4cccnc4c3n21 [Example 16, (11R)-11-(1-Fluoro-1-methylethyl)-10,11-dihydro-8H-[1,4]oxazino[4′,3′:1,2]imidazo[4,5-c][1,5]naphthyridin-6-amine]"
10,139 to 141 °C,"CC(C)[C@H]1COCc2nc3c(N)nc4ccc(OCc5ccccc5)cc4c3n21 [Example 19, (11S)-2-(Benzyloxy)-11-isopropyl-10,11-dihydro-8H-[1,4]oxazino[4′,3′:1,2]imidazo[4,5-c]quinolin-6-amine]"
11,208 to 210 °C,"CC(C)[C@H]1COCc2nc3c(N)nc4ccc(O)cc4c3n21 [Example 20, (11S)-6-Amino-11-isopropyl-10,11-dihydro-8H-[1,4]oxazino[4′,3′:1,2]imidazo[4,5-c]quinolin-2-ol]"
12,247 to 248 °C,"CC1CCOCc2nc3c(N)nc4cc(Br)ccc4c3n21 (centres unmarked) [Example 22, 3-Bromo-12-methyl-11,12-dihydro-8H,10H-[1,4]oxazepino[4′,3′:1,2]imidazo[4,5-c]quinolin-6-amine]"
13,258 to 261 °C,"C[C@H]1CN(S(C)(=O)=O)Cc2nc3c(N)nc4ccccc4c3n21 [Example 23, (11S)-11-Methyl-9-(methylsulfonyl)-8,9,10,11-tetrahydropyrazino[1′,2′:1,2]imidazo[4,5-c]quinolin-6-amine]"
14,248 to 249 °C,CC(C)[C@@H]1COCc2nc3c(N)nc4ccccc4c3n21 [Example 25]
15,258 to 261 °C,"C[C@@H]1CN(S(C)(=O)=O)Cc2nc3c(N)nc4ccccc4c3n21 [Example 32, (11R)-11-Methyl-9-(methylsulfonyl)-8,9,10,11-tetrahydropyrazino[1′,2′:1,2]imidazo[4,5-c]quinolin-6-amine]"
16,187 to 190 °C,"CN1CCN(C[C@H]2COCc3nc4c(N)nc5ccccc5c4n32)CC1 [Example 37, (11S)-11-[(4-Methylpiperazin-1-yl)methyl]-10,11-dihydro-8H-[1,4]oxazino[4′,3′:1,2]imidazo[4,5-c]quinolin-6-amine]"
17,207.6 to 208.7 °C,"C[C@H](O)[C@H]1COCc2nc3c(N)nc4ccccc4c3n21 [Example 41, (1S)-1-[(11R)-6-amino-10,11-dihydro-8H-[1,4]oxazino[4′,3′:1,2]imidazo[4,5-c]quinolin-1′-yl]ethanol]"
